Several values for one entry are separate records, joined by “and”; a condition that tells them apart may be missing. Identical values can stand only once. Activity calls are given as the source filed them.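 Rule for the calls: active = compounds giving half or more protection of infected cells from virus-caused growth loss, again on retest; inactive = the rest.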
System: CEM cells HIV-1 protection, formazan growth assay
Experiment: NCI AIDS Antiviral Assay
Conditions: for IC50: measured here: growth of uninfected CEM cells
Method in brief: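 Soluble formazan readout of cell growth; CEM cells ± HIV-1; 5 drug concs. ≥50% protection → retest; ≥50% again = moderately active; reproducible 100% = confirmed active.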

## O=C(O)c1c[nH]c2c([N+](=O)[O-])cccc2c1=O
  EC50: > 1070 µM
  outcome: inactive
  IC50: 9.12 µM

## CC(C(=O)c1ccc(O)cc1)C1(O)C(=O)Nc2c(Cl)cc(Cl)cc21 (stereo not given)
  EC50: > 257 µM
  IC50: 112 µM

## O=C(O)[C@@H]1CSCN1C(=O)c1cccnc1SSc1ncccc1C(=O)N1CSC[C@H]1C(=O)O
  EC50: > 200 µM
  IC50: > 200 µM

## COC(=O)[C@]1(C)CCC[C@]2(C)[C@H]3CC4OO[C@@]3(CC[C@H]21)[C@H]1O[C@@]41C(C)C
  outcome: inactive

## CC(NC(=O)C(CC(=O)OCc1ccccc1)NC(=O)OCc1ccccc1)c1ccccc1 (stereo not given)
  EC50: > 200 µM
  IC50: > 200 µM

## COC(OC)c1cccnc1C
  EC50: > 1480 µM
  IC50: 1050 µM

## CS(=O)(=O)O[C@H]1[C@H](O)c2ccccc2[C@@H]1N=[N+]=[N-]
  EC50: > 200 µM
  IC50: > 200 µM

## COc1nc(N)c(N=O)c(=O)n1C
  outcome: inactive

## COC1=C(C(=O)OC(C)(C)C)C23CCCCC2(C(C(=O)OC(C)(C)C)=C(OC)C3C(=O)OC(C)(C)C)C1C(=O)OC(C)(C)C (stereo not given)
  outcome: inactive

## CC1(c2ccccc2Cl)C(C#N)C(=O)NC(=O)C1C#N (stereo not given)
  EC50: > 91.2 µM
  IC50: 46.8 µM

## O=C(O)CCCc1ccc(N(CCCl)CCCl)cc1
  EC50: > 200 µM
  IC50: 14.8 µM

## CC1(C)CCCC2OC2CCC(C)(C)C1=O (stereo not given)
  EC50: > 200 µM
  IC50: > 200 µM

## COC1/C=C\OC2(C)Oc3c(C)c(O)c4c(O)c(c(/C=N\OC(C(=O)O)C(C)C)c(O)c4c3C2=O)NC(=O)/C(C)=C\C=C/C(C)C(O)C(C)C(O)C(C)C(OC(C)=O)C1C (stereo not given)
  EC50: > 100 µM
  IC50: 40.7 µM

## O=C1NC(N/N=C\C(O)C(O)C(O)C(O)CO)=N/C1=C/c1ccc(Cl)cc1 (stereo not given)
  EC50: > 200 µM
  IC50: 61.7 µM and 37.2 µM

## CC(C)(C)c1cc2c(O)c(c1)COCc1cc(C(C)(C)C)cc(c1O)COCc1cc(C(C)(C)C)cc(c1O)COC2
  EC50: > 200 µM
  IC50: 145 µM

## COC=C1C(=O)OC(C)(C)OC1=O
  EC50: 28.8 µM
  IC50: 107 µM

## CCCN1CN(C(C(=O)N[C@@H]2C(=O)N3C2SC(C)(C)C3C(=O)O)c2ccccc2)CSC1=S (stereo not given in full)
  EC50: > 257 µM
  IC50: 148 µM

## N=C(N)N1CCC(N2CCOCC2)CC1
  EC50: > 200 µM
  IC50: > 200 µM

## CC(=O)OC12c3ccccc3C(c3ccccc31)C1C(=O)N(N=C(C)C)C(=O)C12 (stereo not given)
  EC50: > 200 µM
  IC50: > 200 µM

## CC1(C)N=C(C(N)=O)c2ncn(CCCO)c2N1
  EC50: > 200 µM
  IC50: > 200 µM

## CN1CCCC(O)C1CNC12CC3CC(CC(C3)C1)C2 (stereo not given)
  EC50: > 794 µM
  IC50: 245 µM

## CCOP(=S)(NN=C1CCCC1)OCC
  EC50: > 200 µM
  IC50: > 200 µM

## COC(=O)/C(=N/NC(C)(C)C)C(C(=O)OC)C(=O)C(=O)Nc1nc2ccc([N+](=O)[O-])cc2s1 (stereo not given)
  EC50: > 53.7 µM
  IC50: > 53.7 µM

## N/N=C1/CCN2CCCc3cccc1c32
  EC50: > 200 µM
  IC50: 182 µM

## C=CCCCN1C(=O)C2C3c4ccccc4C(C=O)(c4ccccc43)C2C1=O (stereo not given)
  EC50: > 200 µM
  IC50: 7.24 µM

## O=C1Oc2ccccc2C(=O)/C1=C/N1C(=O)N/C(=C\c2ccccc2Br)C1=O
  EC50: > 200 µM
  IC50: 83.2 µM

## Cn1nc(-c2ccccc2)c(C(=O)/C=C/c2ccc(Cl)cc2)c(N2CCCC2)c1=O
  EC50: > 15.1 µM
  IC50: 10.7 µM

## COC(=O)n1nnc2ncccc21
  EC50: > 200 µM
  IC50: > 200 µM

## NS(=O)(=O)c1ccc(NC(=S)/N=C/C2=C(O)c3ccccc3C2=O)cc1
  EC50: > 200 µM
  IC50: 52.5 µM

## O=C(NNc1nc(-c2ccccc2)cs1)Nc1ccccc1
  EC50: > 200 µM
  IC50: 40.7 µM

## CCN(CC)C(=O)Oc1c(Br)ccc2cc(C)cc(OC)c12
  EC50: > 200 µM
  IC50: > 200 µM

## N=c1c2ncn3c(=O)n(-c4ccccc4)c(nc(=O)n1-c1ccccc1)c23
  EC50: > 14.5 µM
  IC50: 8.32 µM

## COc1ccc(-c2nc3ccccc3s2)cc1S(=O)(=O)O
  EC50: > 105 µM
  IC50: 95.5 µM

## O=c1[nH]c2ccccc2c2oc(-c3ccccc3)nc12
  EC50: > 100 µM
  IC50: > 100 µM

## O=P(O)(O)OP(=O)(O)O
  EC50: 182 µM
  IC50: > 200 µM

## COc1cc(C[C@H]2COC(=O)[C@]2(O)Cc2ccc(O)c(OC)c2)ccc1O
  EC50: 1.35 µM
  IC50: 4.79 µM

## CC1C(=O)N(c2ccccc2)NC12CCCc1ccccc12 (stereo not given)
  EC50: > 200 µM
  IC50: 91.2 µM

## CN=c1ccc2cc3ccc(NC)cc3oc-2c1
  EC50: > 200 µM
  IC50: 37.2 µM

## O=Nc1c(-c2ccccc2)nc2cc(-c3ccccc3)[nH]n12
  EC50: > 18.2 µM
  IC50: > 18.2 µM

## NC(N)=C1CN(C2CCCCC2)C(=O)NC1=O
  EC50: > 1050 µM
  IC50: 794 µM

## c1ccc(CNc2ccc3[nH]c4cnccc4c3c2)cc1
  EC50: > 251 µM
  IC50: 36.3 µM
